Laboratory results reported in ChEMBL document CHEMBL5523731, “Bitopic Ligands Support the Presence of a Metastable Binding Site at the β2 Adrenergic Receptor” (J Med Chem, 2024).
pIC50, pKd, pKi: −log10 of the molar value.

Assays:
[1] = target: T1, Beta-2 adrenergic receptor (Homo sapiens, UniProt P07550); experiment: Antagonist activity at beta-2 AR (unknown origin) overexpressed in HEK293 cell membrane assessed as inhibition of ISO-induced cAMP production at EC80 preincubated for 15 mins followed by agonist addition measured after 30 mins by TR-FRET assay
T1 sequence (P07550 whole entry): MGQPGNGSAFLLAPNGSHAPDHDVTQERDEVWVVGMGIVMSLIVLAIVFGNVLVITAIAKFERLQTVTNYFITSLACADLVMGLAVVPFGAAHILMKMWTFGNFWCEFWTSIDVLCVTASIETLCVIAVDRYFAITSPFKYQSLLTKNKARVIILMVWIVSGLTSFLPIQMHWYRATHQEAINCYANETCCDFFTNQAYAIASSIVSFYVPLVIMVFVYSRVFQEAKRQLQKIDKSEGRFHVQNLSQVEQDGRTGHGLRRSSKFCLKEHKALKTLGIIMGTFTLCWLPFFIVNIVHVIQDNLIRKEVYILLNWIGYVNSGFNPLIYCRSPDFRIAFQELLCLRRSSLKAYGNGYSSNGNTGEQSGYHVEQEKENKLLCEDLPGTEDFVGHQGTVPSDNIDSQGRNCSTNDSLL

[2] = target: T1, Beta-2 adrenergic receptor; experiment: Displacement of [3H]-DHA from beta-2 AR (unknown origin) overexpressed in HEK293 cell membrane assessed as inhibition constant incubated for 90 mins by liquid scintillation analysis
[3] = target: T1, Beta-2 adrenergic receptor; experiment: Displacement of [3H]-DHA from beta-2 AR (unknown origin) overexpressed in HEK293 cell membrane assessed as dissociation constant (K) incubated for 90 mins by liquid scintillation analysis

Row | SMILES | pIC50 [1] | pKi [2] | pKd [3]
1 | CC(C)NC[C@H](O)COc1ccc(CCCCN=[N+]=[N-])cc1 | 5.32 | 6.41 | 6.23
2 | CC(C)NC[C@H](O)COc1ccc(CCCN=[N+]=[N-])cc1 | 5.40 | – | –
